The values that follow come from patent US12214036B2, “Combination therapy comprising AXL/MER and PD-1/PD-L1 inhibitors” (Incyte Corporation, priority 2020, dated 2025).

Assay [1] has as its system TYRO3-expressing BAF3 cells. The assay can be described thus: BAF3-TYRO3 cell proliferation assay (CellTiter-Glo). The format is cell-based, mouse. The text has this:
(§1) To evaluate the cellular potency and selectivity within the TAM receptor family, mouse BAF3 cell lines with stable expression of AXL, MER, or TYRO3 were generated.
(§2) The cytoplasmic domain of AXL, MER, or TYRO3 fused with dimerization sequence and HA tag was cloned into a pMSCV (murine stem cell virus) vector with a puromycin-resistance marker to generate three constructs individually by electroporation into BAF3 cells. Single clones that were IL-3-independent and puromycin-resistant were selected and characterized. To evaluate effects on BAF3 cell proliferation, 1000 cells/well of BAF3, BAF3-AXL, BAF3 MER, or BAF3-TYRO3 cells were treated in the presence or absence of Compound 1 at various concentrations (10 concentration points with a three-fold dilution factor from the highest concentration of 10 μM) diluted in RPMI-1640 with 2% FBS for 48 hours in a 384-well plate. Cell viability was measured by ATP assay (CellTiter-Glo Assay, Promega, Madison, Wis.) according to the manufacturer's procedure. The data were converted to percent inhibition relative to DMSO control, and IC50 curves were fitted using GraphPad Prism software.
A general note: In ATP-based viability assays light output follows the ATP content of the culture.

For assay [2], the target named is T1, MER (Homo sapiens, UniProt Q12866).
T1 sequence (Q12866 21-999): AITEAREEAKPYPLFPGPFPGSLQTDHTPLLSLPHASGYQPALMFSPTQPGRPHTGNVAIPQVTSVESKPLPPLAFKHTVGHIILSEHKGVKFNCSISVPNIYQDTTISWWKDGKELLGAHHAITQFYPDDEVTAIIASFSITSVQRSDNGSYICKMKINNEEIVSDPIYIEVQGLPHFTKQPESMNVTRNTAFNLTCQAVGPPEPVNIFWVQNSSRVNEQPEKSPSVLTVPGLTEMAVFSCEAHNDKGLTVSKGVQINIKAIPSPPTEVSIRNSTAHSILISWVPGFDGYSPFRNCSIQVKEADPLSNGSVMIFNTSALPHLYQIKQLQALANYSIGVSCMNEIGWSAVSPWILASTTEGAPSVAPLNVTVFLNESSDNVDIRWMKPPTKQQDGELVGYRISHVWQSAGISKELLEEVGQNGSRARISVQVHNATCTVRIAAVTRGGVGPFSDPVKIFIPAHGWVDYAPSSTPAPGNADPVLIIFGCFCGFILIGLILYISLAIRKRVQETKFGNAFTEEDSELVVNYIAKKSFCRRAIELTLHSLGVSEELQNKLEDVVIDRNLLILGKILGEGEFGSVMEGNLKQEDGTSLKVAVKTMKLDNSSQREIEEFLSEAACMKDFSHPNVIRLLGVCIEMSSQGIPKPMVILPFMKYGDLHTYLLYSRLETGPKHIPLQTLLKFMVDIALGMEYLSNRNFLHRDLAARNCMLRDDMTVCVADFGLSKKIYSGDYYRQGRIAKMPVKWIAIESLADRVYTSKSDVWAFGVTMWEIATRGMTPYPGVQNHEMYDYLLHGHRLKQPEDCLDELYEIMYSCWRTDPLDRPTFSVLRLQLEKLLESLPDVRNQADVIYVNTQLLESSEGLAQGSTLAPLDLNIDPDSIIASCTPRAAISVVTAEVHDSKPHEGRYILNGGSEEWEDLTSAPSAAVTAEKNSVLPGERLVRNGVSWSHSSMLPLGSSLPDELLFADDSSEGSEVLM
The assay can be described thus: Phospho-MER inhibition assay in G361 cells (ELISA). Further details: G361 cells, a melanoma cell line expressing high level of MER kinase; endogenous in cells; host or cells: G361. Conditions: G361 melanoma cells, N=2 (FIG. 3); read-out: IC50, MER phosphorylation induced by MAB8912. It is filed as cell-based. How it is done:
The potency of Compound 1 in blocking MER auto-phosphorylation was evaluated in G361 cells, a melanoma cell line expressing high level of MER kinase.
Newly thawed G361 cells were allowed to recover for three passages before use, and only cells within 20 passages after thawing were used in the assay. Cells were kept under nonconfluent conditions and used in log-phase growth. Two mL of 1×10^6 cells/mL (2×10^6 cells/well) G361 cells were added to a six-well tissue-culture plates (Corning Incorporated; #3961) for 2 days. At the time of the assay, 1 mL of medium was added to each well. […] The optical density of the plate was measured using a Molecular Devices SpectraMax Plus microplate reader (Molecular Devices, San Jose, Calif.) at 450 nm with wavelength correction at 540 nm. Absorbance of the standards was plotted versus the concentration to generate a standard curve using four-parameter algorithm curve fitting software (SOFTmax PRO application, Molecular Devices). pMER concentrations for unknown samples were determined by extrapolation from the standard curve. IC50 values were calculated by GraphPad Prism 7.0 using a nonlinear regression sigmoidal dose-response curve with variable slope.
(In general: In an ELISA, binding on a coated surface is turned into a signal by an enzyme label.)

The subject of assay [3] is parental BAF3 cells. Description: Parental BAF3 cell proliferation assay (CellTiter-Glo). The following applies: Mus musculus, 48 hours, 2% FBS. It is filed as cell-based.
Source text: as §1, §2

Regarding `CC(C)C(=O)N1CCC(c2cc(-c3ccc(NC(=O)c4cn(C(C)C)c(=O)n(-c5ccccn5)c4=O)cc3)c3c(N)ncnn23)CC1` [Compound 1, N-(4-(4-Amino-7-(1-isobutyrylpiperidin-4-yl)pyrrolo[1,2-f][1,2,4]triazin-5-yl)phenyl)-1-isopropyl-2,4-dioxo-3-(pyridin-2-yl)-1,2,3,4-tetrahydropyrimidine-5-carboxamide], the “selectivity against TYRO3 (cellular)” value in assay [1] (BAF3 transfectants) is listed as more than 30 fold. Besides, the IC50 (usually the concentration that gives 50% inhibition) in assay [1] (Mus musculus, BaF3, 48 hours, 2% FBS, read-out: IC50, growth of TYRO3-expressing BAF3 cells) is 498 ± 161 nM; in assay [2], 8.3 ± 3.1 nM; in assay [3], more than 4000 nM.
